Test results taken from ChEMBL document CHEMBL1201862, “PubChem BioAssay data set” (2004).
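Growth conditions: 96-well plates. Treatment: test compound, 48 hours, 5 concentrations. Analysis: linear interpolation between bracketing concentrations; unreached endpoints set to highest concentration. At the GI50, growth is halved.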 The source made the active and inactive calls. No stated cut-off is given here; in the data, active = GI50 up to about 1.1 µM and inactive = higher. Where a SMILES comes first, the peptide text is derived from it. [ ]: non-standard residue; d: D form. The star is where a group is joined. ξ: configuration not given here. ξD = NC(CC(=O)O)C(=O)O; Ac3c = NC1(C(=O)O)CC1; Boc = CC(C)(C)OC(=O)*; OBn = c1ccc(CO*)cc1

Assays:
Assay in all cases: growth of human tumour cells (NCI), 48 h
[1] = system: SK-OV-3
[2] = system: Hs-578T
[3] = system: HOP-92
[4] = system: CCRF-CEM
[5] = system: NCI/ADR-RES
[6] = system: T47D
[7] = system: SNB-19
[8] = system: SK-MEL-5
[9] = system: IGROV-1
[10] = system: UACC-257
[11] = system: Malme-3M
[12] = system: 786-0
[13] = system: HT-29
[14] = system: UO-31
[15] = system: SN12C
[16] = system: MDA-MB-231
[17] = system: PC-3
[18] = system: SF-295
[19] = system: EKVX

Measured: GI50

CC1(C)Cc2c(sc3[nH]c(=S)[nH]c(=S)c23)CS1
inactive: [1] 27.7 µM | [2] 45.2 µM | [3] 12.4 µM | [4] 29.4 µM | [5] 43.4 µM | [6] 20.3 µM | [7] 54.8 µM | [8] 29.6 µM | [9] 29.9 µM | [10] 18.2 µM | [11] 20.6 µM | [12] 85.9 µM | [13] 27.1 µM | [14] 31.8 µM | [15] 40.5 µM | [16] 66.8 µM | [17] 25.4 µM

COC(=O)C1(NC(=O)C(CC(=O)OCc2ccccc2)NC(=O)OC(C)(C)C)CC1 (configuration not stated) (Boc-[ξD](OBn)-[Ac3c]-OMe)
inactive: [1] 19.6 µM | [2] > 100 µM | [3] > 100 µM | [4] > 100 µM | [5] > 100 µM | [6] > 100 µM | [18] > 100 µM | [7] > 100 µM | [8] > 100 µM | [9] > 100 µM | [10] > 100 µM | [11] > 100 µM | [12] > 100 µM | [13] > 100 µM | [14] > 100 µM | [15] > 100 µM | [16] > 100 µM | [19] > 100 µM | [17] > 100 µM

O=C(/C=C/c1ccc(O)cc1)c1cc(O)cc(O)c1
inactive: [1] 18.2 µM | [2] 29.9 µM | [3] 14.3 µM | [4] 3.36 µM | [5] 18.9 µM | [6] 14.6 µM | [18] 15.7 µM | [7] 16.7 µM | [8] 15.5 µM | [9] 13.7 µM | [10] 16.3 µM | [11] 20.4 µM | [12] 16.6 µM | [13] 17.5 µM | [14] 10 µM | [15] 15.2 µM | [16] 15.5 µM | [19] 17.3 µM | [17] 11.1 µM

COc1ccc(Nc2nn3c(=O)c4c(C)c(C)sc4nc3s2)cc1
inactive: [1] 26.6 µM | [2] 79.1 µM | [3] 27.3 µM | [4] 31.6 µM | [5] 39.1 µM | [6] 25.7 µM | [18] 37.7 µM | [7] 47.6 µM | [8] 41.1 µM | [9] 42.2 µM | [10] 29.9 µM | [11] 32.2 µM | [12] 23.2 µM | [13] 42.3 µM | [14] 18 µM | [15] 33.5 µM | [16] 78.7 µM | [17] 36.1 µM

Nc1c(S(=O)(=O)O)cc(Nc2cccc(S(N)(=O)=O)c2)c2c1C(=O)c1ccccc1C2=O
inactive: [1] 27.5 µM | [2] 29 µM | [3] > 100 µM | [4] > 100 µM | [5] > 100 µM | [6] > 100 µM | [18] 49.7 µM | [7] > 100 µM | [8] 37.5 µM | [9] > 100 µM | [10] 54.2 µM | [11] 36.5 µM | [12] 62.5 µM | [13] 29.6 µM | [14] 97.3 µM | [15] > 100 µM | [16] > 100 µM | [19] 57 µM | [17] > 100 µM
